# In US10774053B2, “HIV protease inhibitors” (Gilead Sciences, Inc., priority 2017, dated 2020):
# System: HIV-1 (IIIB) in MT-4 cells
# Experiment: microbe, parasite or virus in culture
# Assay type: cell-based
# Details: Human immunodeficiency virus 1, IIIB, MT4, MT-4 cells, HIV-1; read-out: MT4 EC50
# Experimental: Compounds were serially diluted (1:3) in DMSO on 384-well polypropylene plates and further diluted 200-fold into complete RPMI media (10% FBS, 1% P/S) using the Biotek Micro Flow and Agilent ECHO acoustic dispenser. Each plate contained up to 8 test compounds, with negative (No Drug Control) and 5 uM AZT positive controls. MT-4 cells were pre-infected with 10 uL of either RPMI (mock-infected) or a fresh 1:250 dilution of an HIV-1 (IIIB) concentrated virus stock. Infected and uninfected MT-4 cells were further diluted in complete RPMI media and added to each plate using a Micro Flow dispenser. After 5 days incubation in a humidified and temperature controlled incubator (37° C.), Cell Titer Glo (Promega) was added to the assay plates to quantify the amount of luciferase.
row,Structure (SMILES),EC50
1,CC(C)(C)C[C@]1(c2ccc(-c3ncccn3)cc2)NC(=N)N([C@H](COC(=O)NC2(C(F)(F)F)CC2)c2ccc(Cl)c(-c3ncnn3C(F)F)c2)C1=O [Compound 117],6.81 nM
2,CC(C)(C)C[C@]1(c2ccc(-c3cnc(C#N)nc3)cc2)NC(=N)N([C@H](COC(=O)NC2(C(F)(F)F)CC2)c2ccc(Cl)c(-c3ncnn3C(F)F)c2)C1=O [Compound 118],16.4 nM
3,CC(C)(C)C[C@]1(c2ccc(-c3cnsc3)cc2)NC(=N)N([C@H](COC(=O)NC2(C(F)(F)F)CC2)c2ccc(Cl)c(-c3ncnn3C(F)F)c2)C1=O [Compound 119],10.3 nM
4,CC(C)(C)C[C@]1(c2ccc(-c3ccn4ccnc4c3)cc2)NC(=N)N([C@H](COC(=O)NC2(C(F)(F)F)CC2)c2ccc(Cl)c(-c3ncnn3C(F)F)c2)C1=O [Compound 120],27.8 nM
5,CC(C)(C)C[C@]1(c2ccc(-c3cnc4ccccn34)cc2)NC(=N)N([C@H](COC(=O)NC2(C(F)(F)F)CC2)c2ccc(Cl)c(-c3ncnn3C(F)F)c2)C1=O [Compound 121],21 nM
6,CC(C)(C)C[C@]1(c2ccc(-c3cnc(C(F)(F)F)nc3)cc2)NC(=N)N([C@H](COC(=O)NC2(C(F)(F)F)CC2)c2ccc(Cl)c(-c3ncnn3C(F)F)c2)C1=O [Compound 122],25.4 nM
7,CC(C)(C)C[C@]1(c2ccc(-c3cnn(C(F)F)c3)cc2)NC(=N)N([C@H](COC(=O)NC2(C(F)(F)F)CC2)c2ccc(F)c(-c3ncnn3C(F)F)c2)C1=O [Compound 123],28.1 nM
8,CC(C)(C)C[C@]1(c2ccc(-c3ncccn3)cc2)NC(=N)N([C@H](COC(=O)NC(C)(C)C(F)F)c2ccc(Cl)c(-c3ncnn3C(F)F)c2)C1=O [Compound 125],12 nM
9,CC(C)(F)C[C@]1(c2ccc(Br)cc2)NC(=N)N([C@H](COC(=O)NC(C)(C)C(F)F)c2ccc(Cl)c(-c3ncnn3C(F)F)c2)C1=O [Compound 126],242 nM
10,CC(C)(F)C[C@]1(c2ccc(-c3ncccn3)cc2)NC(=N)N([C@H](COC(=O)NC(C)(C)C(F)F)c2ccc(Cl)c(-c3ncnn3C(F)F)c2)C1=O [Compound 127],27.5 nM
11,Cn1ncnc1-c1cc([C@@H](COC(=O)NC(C)(C)C(F)F)N2C(=N)N[C@](CC(C)(C)F)(c3ccc(-c4cnn(C(F)F)c4)cc3)C2=O)ccc1Cl [Compound 128],85 nM
12,Cn1ncnc1-c1cc([C@@H](COC(=O)NC(C)(C)C(F)F)N2C(=N)N[C@](CC(C)(C)C(F)(F)F)(c3ccc(-c4cnn(C(F)F)c4)cc3)C2=O)ccc1Cl [Compound 130],18.7 nM
13,CC(C)(F)C[C@]1(c2ccc(-c3ncccn3)cc2F)NC(=N)N([C@H](COC(=O)NC(C)(C)C(F)F)c2ccc(Cl)c(-c3ncnn3C(F)F)c2)C1=O [Compound 132],48 nM
14,CC(C)(F)C[C@]1(c2ccc(-c3cnn(C4CC4)c3)cc2F)NC(=N)N([C@H](COC(=O)NC(C)(C)C(F)F)c2ccc(Cl)c(-c3ncnn3C(F)F)c2)C1=O [Compound 133],35.1 nM
15,CC(C)(C)C[C@]1(c2ccc(-c3cnn(C4CC4)c3)c(F)c2F)NC(=N)N([C@H](COC(=O)NC2(C(F)(F)F)CC2)c2ccc(Cl)c(-c3ncnn3C(F)F)c2)C1=O [Compound 136],7.91 nM
16,CC(C)(C)C[C@]1(c2ccc(-c3cn(C4CC4)nn3)cc2)NC(=N)N([C@H](COC(=O)NC2(C(F)(F)F)CC2)c2ccc(Cl)c(-c3ncnn3C(F)F)c2)C1=O [Compound 137],19.5 nM
17,CC(C)(C)C[C@]1(c2ccc(-n3cc(F)cn3)cc2)NC(=N)N([C@H](COC(=O)NC2(C(F)(F)F)CC2)c2ccc(Cl)c(-c3ncnn3C(F)F)c2)C1=O [Compound 138],11.5 nM
18,CC1(C[C@]2(c3ccc(-c4cnn(C5CC5)c4)cc3)NC(=N)N([C@H](COC(=O)NC3(C(F)(F)F)CC3)c3ccc(Cl)c(-c4ncnn4C(F)F)c3)C2=O)CC1 [Compound 139],28.1 nM
19,CC(C)(C)C[C@]1(c2ccc(-c3cnn(C(F)F)c3)cc2)NC(=N)N([C@H](COC(=O)NC2(C(F)(F)F)CC2)c2ccc(C#N)c(-c3ncnn3C(F)F)c2)C1=O [Compound 140],266 nM
20,CC(C)(C)C[C@]1(c2ccc(-c3cnn(C(F)F)c3)cc2)NC(=N)N([C@H](COC(=O)NC2(C(F)(F)F)CC2)c2ccc(C(N)=O)c(-c3ncnn3C(F)F)c2)C1=O [Compound 141],1020 nM
21,CC(C)(C)C[C@]1(c2ccc(-c3ncn(C4CC4)n3)cc2F)NC(=N)N([C@H](COC(=O)NC2(C(F)(F)F)CC2)c2ccc(Cl)c(-c3ncnn3C(F)F)c2)C1=O [Compound 142],10.1 nM

row,Structure (SMILES),EC50
1,CC(C)(C)C[C@]1(c2ccc(-c3cnn(C4CC4)n3)cc2F)NC(=N)N([C@H](COC(=O)NC2(C(F)(F)F)CC2)c2ccc(Cl)c(-c3ncnn3C(F)F)c2)C1=O [Compound 143],9.59 nM
2,CC(C)(C)C[C@]1(c2ccc(-c3cnn(C4CC4)c3)c(F)c2)NC(=N)N([C@H](COC(=O)NC2(C(F)(F)F)CC2)c2ccc(Cl)c(-c3ncnn3C(F)F)c2)C1=O [Compound 144],7.92 nM
3,CC(C)(Cl)C[C@]1(c2ccc(-c3cnn(C(F)F)c3)cc2)NC(=N)N([C@H](COC(=O)NC2(C(F)(F)F)CC2)c2ccc(Cl)c(-c3ncnn3C(F)F)c2)C1=O [Compound 145],228 nM
4,C[C@H](NC(=O)OC[C@H](c1ccc(Cl)c(-c2ncnn2C(F)F)c1)N1C(=N)N[C@](CC(C)(C)C)(c2ccc(-c3cnn(C4CC4)n3)cc2)C1=O)C(F)(F)F [Compound 147],7.93 nM
5,C[C@H](NC(=O)OC[C@H](c1ccc(Cl)c(-c2ncnn2C(F)F)c1)N1C(=N)N[C@](CC(C)(C)C)(c2ccc(-c3cn(C45CC(C4)C5)nn3)c(F)c2)C1=O)C(F)(F)F [Compound 148],13.8 nM
6,CC(C)(C[C@]1(c2ccc(-c3cnn(C4CC4)n3)cc2)NC(=N)N([C@H](COC(=O)NC2(C(F)(F)F)CC2)c2ccc(Cl)c(-c3ncnn3C(F)F)c2)C1=O)C1CC1 [Compound 149],11.9 nM
7,C[C@H](NC(=O)OC[C@H](c1ccc(Cl)c(-c2ncnn2C(F)F)c1)N1C(=N)N[C@](CC(C)(C)C2CC2)(c2ccc(-c3cnn(C4CC4)n3)cc2)C1=O)C(F)(F)F [Compound 150],9.92 nM
8,CC(C)(C)C[C@]1(c2ccc(-c3cnn(CC(F)F)n3)cc2F)NC(=N)N([C@H](COC(=O)NC2(C(F)(F)F)CC2)c2ccc(Cl)c(-c3ncnn3C(F)F)c2)C1=O [Compound 151],7.55 nM
9,CC1(NC(=O)OC[C@H](c2ccc(Cl)c(-c3ncnn3C(F)F)c2)N2C(=N)N[C@](CC(C)(C)C(F)(F)F)(c3ccc(-c4cnn(C5CC5)n4)cc3)C2=O)CC1 [Compound 157],7.64 nM
10,CC(C)(C[C@]1(c2ccc(-c3cnn(C4CC4)n3)cc2)NC(=N)N([C@H](COC(=O)NC2(C(F)(F)F)CC2)c2ccc(Cl)c(-c3ncnn3C3CC3)c2)C1=O)C(F)(F)F [Compound 159],10.9 nM
11,C[C@H](C(=O)NC[C@H](c1ccc(Cl)c(-c2ncnn2C(F)F)c1)N1C(=N)N[C@](CC(C)(C)C(F)(F)F)(c2ccc(-c3cnn(C4CC4)n3)cc2)C1=O)C(F)(F)F [Compound 161],14.3 nM
12,C[C@@H](C(=O)NC[C@H](c1ccc(Cl)c(-c2ncnn2C(F)F)c1)N1C(=N)N[C@](CC(C)(C)C(F)(F)F)(c2ccc(-c3cnn(C4CC4)n3)cc2)C1=O)C(F)(F)F [Compound 162],21 nM
13,CC(C)(C)C[C@]1(c2ccc(-c3cnn(C(F)F)c3)cc2)NC(=N)N([C@H](COC(=O)NC2(C)CC2)c2ccc(Cl)c(-n3ncnc3C(F)F)c2)C1=O [Compound 178],9.99 nM
14,CC(C)(C)C[C@]1(c2ccc(-c3cnn(C(F)F)c3)cc2)NC(=N)N([C@H](COC(=O)Nc2ccccn2)c2ccc(Cl)c(-n3ncnc3C(F)F)c2)C1=O [Compound 181],29 nM
15,CC(C)(C)C[C@]1(c2ccc(-c3cnn(C(F)F)c3)cc2)NC(=N)N([C@H](COC(=O)NC(C)(C)C)c2ccc(Cl)c(-n3ncnc3C(F)F)c2)C1=O [Compound 183],12 nM
16,CC(C)(C)C[C@]1(c2ccc(-c3cnn(C(F)F)c3)cc2)NC(=N)N([C@H](COC(=O)N2CC(F)(F)C2)c2ccc(Cl)c(-n3ncnc3C(F)F)c2)C1=O [Compound 184],9.93 nM
17,CC(C)(C)C[C@]1(c2ccc(-c3cnn(C(F)F)c3)cc2)NC(=N)N([C@H](CO)c2ccc(Cl)c(-n3ncnc3C(F)F)c2)C1=O [Compound 186],80.2 nM
18,CC(C)(C)C[C@]1(c2ccc(-c3ncccn3)cc2)NC(=N)N([C@H](COC(=O)NC2(C(F)(F)F)CC2)c2ccc(Cl)c(-n3ncnc3C(F)F)c2)C1=O [Compound 187],11.6 nM
19,CC(C)(C)C[C@]1(c2ccc(-c3ncccn3)cc2)NC(=N)N([C@H](COC(=O)NC(C)(C)C(F)F)c2ccc(Cl)c(-n3ncnc3C(F)F)c2)C1=O [Compound 188],9.9 nM
20,CC(C)(C)C[C@]1(c2ccc(-c3ncccn3)cc2)NC(=N)N([C@H](COC(=O)NC(C)(C)C(F)(F)F)c2ccc(Cl)c(-n3ncnc3C(F)F)c2)C1=O [Compound 189],9.12 nM
21,CC(C)(C)C[C@]1(c2ccc(-c3ccccn3)cc2)NC(=N)N([C@H](COC(=O)NC2(C(F)(F)F)CC2)c2ccc(Cl)c(-n3ncnc3C(F)F)c2)C1=O [Compound 190],22.6 nM

# Same assay, conditions: Human immunodeficiency virus 1, IIIB, MT4, read-out: MT4 EC50 (nM)
row,Structure (SMILES),EC50
1,CC(C)(C[C@]1(c2ccc(-c3cnn(C4CC4)n3)cc2)NC(=N)N([C@H](COC(=O)NCC(F)(F)F)c2ccc(Cl)c(-c3ncnn3C(F)F)c2)C1=O)C(F)(F)F [Compound 156],11.1 nM
2,CC(C)(C)C[C@]1(c2ccc(-c3cnn(C(F)F)c3)cc2)NC(=N)N([C@H](COC(=O)Nc2ccccc2)c2ccc(Cl)c(-n3ncnc3C(F)F)c2)C1=O [Compound 180],23.7 nM

# Same assay, conditions: MT-4 cells, HIV-1; read-out: MT4 EC50
row,Structure (SMILES),EC50
1,CC(C)(C)C[C@H]1C(=O)N([C@H](COC(=O)NC(C)(C)C(F)F)c2ccc(F)c(-c3ncnn3C(F)F)c2)C(=N)N1c1ccc(-c2cnn(C(F)F)c2)cc1 [Compound 124],65.3 nM
